We go through 13 compounds from patent US12649750B2, “Macrocyclic compounds, compositions, and methods of using thereof” (Sionna Therapeutics Inc., priority 2022, dated 2026).

One assay deals with T1, CFTR (Homo sapiens, UniProt P13569, DEL508-508).
T1 construct: Primary human bronchial epithelial cells from a ΔF508 homozygous CF donor; host or cells: primary human bronchial epithelial cells (CF-HBE), ΔF508 homozygous donor
Nature of the assay: TECC24 AUC fold over DMSO @10 μM, CFTR-mediated transepithelial chloride transport in CF-HBE cells. The class given is cell-based. The settings on record: test agent AUC divided by DMSO vehicle AUC, primary CF-HBE cells, ΔF508 homozygous donor, 48 hours incubation. The essentials: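 ΔF508-homozygous primary bronchial epithelial cells incubated 48 h at 36.5° C with compound (10 μM) in IL-13-containing medium, then TECC24 current-clamp recording in pH 7.4 Hepes saline with benzamil 10 μM, forskolin 10 μM, then CFTR inhibitor-172 20 μM. Equivalent Cl− current AUC between forskolin and inhibitor, expressed as fold over DMSO.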

The target in another assay is T2, NBD1 (Homo sapiens, UniProt P13569).
T2 construct: Purified recombinant NBD1 was produced using previously described methods; made in house
T2 sequence (P13569 423-646 limits assumed): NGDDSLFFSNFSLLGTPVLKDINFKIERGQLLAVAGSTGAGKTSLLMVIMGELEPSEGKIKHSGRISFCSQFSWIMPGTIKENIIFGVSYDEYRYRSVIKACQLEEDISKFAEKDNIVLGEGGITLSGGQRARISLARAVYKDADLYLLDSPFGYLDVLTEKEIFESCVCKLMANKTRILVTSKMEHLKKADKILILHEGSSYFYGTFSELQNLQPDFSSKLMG
Put plainly: Aggregation analysis using differential static light scattering (DSLS), thermal stability of NBD1 (ΔTagg). The class given is binding. The settings on record: ΔTagg versus DMSO control, NBD1 0.2 mg/ml. The essentials:
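Differential static light scattering read from 25° C. to 70° C. every 0.5° C., ramp 1° C./min, on recombinant NBD1 (0.2 mg/ml; Tris/NaCl/MgCl2 buffer with 2 mM ATP, 2 mM DTT, pH 7.6, 1% glycerol) plus compound. Reported ΔTagg subtracts averaged DMSO Tagg from inflection-point Tagg; categories A ≤5, B >5-10, C >10-25° C.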

T1 sequence (P13569 with tags, fused parts or gaps DEL508-508): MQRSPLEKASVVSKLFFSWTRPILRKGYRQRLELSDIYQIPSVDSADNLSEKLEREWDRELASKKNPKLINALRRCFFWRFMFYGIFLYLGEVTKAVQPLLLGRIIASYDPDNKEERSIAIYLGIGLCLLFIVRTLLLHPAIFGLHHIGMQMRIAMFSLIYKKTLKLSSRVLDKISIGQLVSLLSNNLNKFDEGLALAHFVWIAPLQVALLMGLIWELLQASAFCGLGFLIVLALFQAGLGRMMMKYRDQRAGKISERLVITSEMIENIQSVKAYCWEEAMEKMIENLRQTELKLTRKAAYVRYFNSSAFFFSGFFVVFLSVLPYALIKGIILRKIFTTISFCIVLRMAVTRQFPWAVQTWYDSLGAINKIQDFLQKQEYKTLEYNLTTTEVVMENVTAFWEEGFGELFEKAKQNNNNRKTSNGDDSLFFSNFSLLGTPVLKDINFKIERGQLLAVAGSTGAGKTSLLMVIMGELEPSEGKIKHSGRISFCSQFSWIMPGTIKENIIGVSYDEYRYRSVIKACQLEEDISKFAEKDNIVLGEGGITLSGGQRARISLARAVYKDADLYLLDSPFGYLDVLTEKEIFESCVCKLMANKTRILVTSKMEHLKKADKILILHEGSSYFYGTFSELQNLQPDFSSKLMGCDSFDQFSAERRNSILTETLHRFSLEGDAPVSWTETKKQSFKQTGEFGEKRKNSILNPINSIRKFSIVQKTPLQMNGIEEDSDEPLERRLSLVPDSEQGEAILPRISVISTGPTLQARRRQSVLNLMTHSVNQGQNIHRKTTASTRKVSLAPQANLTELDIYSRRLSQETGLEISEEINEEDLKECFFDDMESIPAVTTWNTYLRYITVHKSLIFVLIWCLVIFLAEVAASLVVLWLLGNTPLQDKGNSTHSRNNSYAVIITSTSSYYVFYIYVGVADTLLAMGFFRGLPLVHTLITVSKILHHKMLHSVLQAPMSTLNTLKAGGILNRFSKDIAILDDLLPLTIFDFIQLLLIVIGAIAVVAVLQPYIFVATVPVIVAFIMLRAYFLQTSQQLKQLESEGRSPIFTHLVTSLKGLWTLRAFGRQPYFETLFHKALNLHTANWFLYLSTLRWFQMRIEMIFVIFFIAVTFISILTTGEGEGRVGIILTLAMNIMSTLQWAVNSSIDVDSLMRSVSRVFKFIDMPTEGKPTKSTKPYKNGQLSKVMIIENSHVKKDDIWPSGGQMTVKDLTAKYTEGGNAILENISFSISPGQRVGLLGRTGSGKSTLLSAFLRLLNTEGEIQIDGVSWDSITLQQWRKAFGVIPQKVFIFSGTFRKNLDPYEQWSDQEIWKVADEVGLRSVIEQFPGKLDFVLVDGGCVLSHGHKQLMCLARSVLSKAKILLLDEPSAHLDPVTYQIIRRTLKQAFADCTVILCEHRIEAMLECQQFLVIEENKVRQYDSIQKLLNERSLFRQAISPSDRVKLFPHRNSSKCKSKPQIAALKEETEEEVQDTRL

`[2H]C([2H])([2H])C1(c2cccc(CC(C)C(=O)O)c2)CCC(C)(C)CCS(=O)(=O)CCc2c(c(F)cc3[nH]ccc23)Oc2ccc(F)c(c2)-c2nc1nn2C` (single isomer, unassigned) [Compound 119B, 3-[3-[22,28-difluoro-3,9,9-trimethyl-12,12-dioxo-6-(trideuteriomethyl)-24-oxa-12lambda6-thia-3,4,19,30-tetrazapentacyclo[23.3.1.12,5.015,23.016,20]triaconta-1(29),2(30),4,15,17,20,22,25,27-nonaen-6-yl]phenyl]-2-methyl-propanoic acid]: the “TECC (AUC, 10 μM)” value at CFTR was “A (a TECC value less than 12 is marked “A”)”. The “DSLS 3D (100 μM ΔT)” value on NBD1 is “B (a value above 5 °C and less than or equal to 10 °C is marked “B”)”.

Take `[2H]C([2H])([2H])C1(c2cccc(CC3(C(=O)O)CC3)c2)CCCC(C)(C)CS(=O)(=O)CCc2c(c(F)cc3[nH]ccc23)Oc2ccc(F)c(c2)-c2nc1nn2C` (single isomer, unassigned) [Compound 120A, 1-[[3-[22,28-difluoro-3,10,10-trimethyl-12,12-dioxo-6-(trideuteriomethyl)-24-oxa-12λ6-thia-3,4,19,30-tetrazapentacyclo[23.3.1.12,5.015,23.016,20]triaconta-1(29),2(30),4,15,17,20,22,25,27-nonaen-6-yl]phenyl]methyl]cyclopropanecarboxylic Acid]: the “TECC (AUC, 10 μM)” value on CFTR is listed as “A (a TECC value less than 12 is marked “A”)”. Moreover, the “DSLS 3D (100 μM ΔT)” value at NBD1 is “C (a value greater than 10 °C and less than or equal to 25 °C is marked “C”)”.

Take `[2H]C([2H])([2H])C1(c2cccc(CC3(C(=O)O)CC3)c2)CCCC(C)(C)CS(=O)(=O)CCc2c(c(F)cc3[nH]ccc23)Oc2ccc(F)c(c2)-c2nc1nn2C` (single isomer, unassigned) [Compound 120B, 1-[[3-[22,28-difluoro-3,10,10-trimethyl-12,12-dioxo-6-(trideuteriomethyl)-24-oxa-12λ6-thia-3,4,19,30-tetrazapentacyclo[23.3.1.12,5.015,23.016,20]triaconta-1(29),2(30),4,15,17,20,22,25,27-nonaen-6-yl]phenyl]methyl]cyclopropanecarboxylic Acid]: the “TECC (AUC, 10 μM)” value at CFTR is given as “A (a TECC value less than 12 is marked “A”)”. The “DSLS 3D (100 μM ΔT)” value at NBD1 is “A (an ΔTagg value less than or equal to 5 °C is marked “A”)”.

For the compound `Cn1nc2nc1-c1cc(ccc1F)Oc1c(F)c(F)c3[nH]ccc3c1CCS(=O)(=O)CC(C)(C)CCCC2(C#N)c1cccc(CC2(C(=O)O)CC2)c1` (single isomer, unassigned) [Compound 121A, 1-[[3-(6-cyano-21,22,28-trifluoro-3,10,10-trimethyl-12,12-dioxo-24-oxa-12λ6-thia-3,4,19,30-tetrazapentacyclo[23.3.1.12,5.015,23.016,20]triaconta-1(29),2(30),4,15,17,20,22,25,27-nonaen-6-yl)phenyl]methyl]cyclopropanecarboxylic Acid], the “TECC (AUC, 10 μM)” value at CFTR is listed as “B (a value between 12-20 is marked “B”)”. Besides, the “DSLS 3D (100 μM ΔT)” value at NBD1 is “C (a value greater than 10 °C and less than or equal to 25 °C is marked “C”)”.

Consider `Cn1nc2nc1-c1cc(ccc1F)Oc1c(F)c(F)c3[nH]ccc3c1CCS(=O)(=O)CC(C)(C)CCCC2(C#N)c1cccc(CC2(C(=O)O)CC2)c1` (single isomer, unassigned) [Compound 121B, 1-[[3-(6-cyano-21,22,28-trifluoro-3,10,10-trimethyl-12,12-dioxo-24-oxa-12λ6-thia-3,4,19,30-tetrazapentacyclo[23.3.1.12,5.015,23.016,20]triaconta-1(29),2(30),4,15,17,20,22,25,27-nonaen-6-yl)phenyl]methyl]cyclopropanecarboxylic Acid], for which the “TECC (AUC, 10 μM)” value at CFTR was “A (a TECC value less than 12 is marked “A”)”. In addition, the “DSLS 3D (100 μM ΔT)” value on NBD1 was “A (an ΔTagg value less than or equal to 5 °C is marked “A”)”.

In the case of `Cn1nc2nc1-c1cc(ccc1F)Oc1c(F)cc3[nH]ccc3c1CCS(=O)(=O)CC(C)(C)CCCC2(C#N)c1cccc(CC2(C(=O)O)CC2)c1` (single isomer, unassigned) [Compound 122A, 1-[[3-(6-cyano-22,28-difluoro-3,10,10-trimethyl-12,12-dioxo-24-oxa-12λ6-thia-3,4,19,30-tetrazapentacyclo[23.3.1.12,5.015,23.016,20]triaconta-1(29),2(30),4,15,17,20,22,25,27-nonaen-6-yl)phenyl]methyl]cyclopropanecarboxylic Acid], the “TECC (AUC, 10 μM)” value at CFTR was “A (a TECC value less than 12 is marked “A”)”. Besides, on NBD1, the “DSLS 3D (100 μM ΔT)” value was “C (a value greater than 10 °C and less than or equal to 25 °C is marked “C”)”.

Regarding `Cn1nc2nc1-c1cc(ccc1F)Oc1c(F)cc3[nH]ccc3c1CCS(=O)(=O)CC(C)(C)CCCC2(C#N)c1cccc(CC2(C(=O)O)CC2)c1` (single isomer, unassigned) [Compound 122B, 1-[[3-(6-cyano-22,28-difluoro-3,10,10-trimethyl-12,12-dioxo-24-oxa-12λ6-thia-3,4,19,30-tetrazapentacyclo[23.3.1.12,5.015,23.016,20]triaconta-1(29),2(30),4,15,17,20,22,25,27-nonaen-6-yl)phenyl]methyl]cyclopropanecarboxylic Acid], at CFTR, the “TECC (AUC, 10 μM)” value is on record as “A (a TECC value less than 12 is marked “A”)”. The “DSLS 3D (100 μM ΔT)” value at NBD1 is “A (an ΔTagg value less than or equal to 5 °C is marked “A”)”.

In the case of `Cn1nc2nc1-c1cc(ccc1F)Oc1c(F)cc3[nH]ccc3c1CCS(=O)(=O)CC(C)(C)OCCC2(C#N)c1cccc(CC2(C(=O)O)CC2)c1` (single isomer, unassigned) [Compound 123A, 1-[[3-(6-cyano-22,28-difluoro-3,10,10-trimethyl-12,12-dioxo-9,24-dioxa-12λ6-thia-3,4,19,30-tetrazapentacyclo[23.3.1.12,5.015,23.016,20]triaconta-1(29),2(30),4,15,17,20,22,25,27-nonaen-6-yl)phenyl]methyl]cyclopropanecarboxylic Acid], the “TECC (AUC, 10 μM)” value at CFTR is reported as “A (a TECC value less than 12 is marked “A”)”. Further, at NBD1, the “DSLS 3D (100 μM ΔT)” value was “A (an ΔTagg value less than or equal to 5 °C is marked “A”)”.

As for `Cn1nc2nc1-c1cc(ccc1F)Oc1c(F)cc3[nH]ccc3c1CCS(=O)(=O)CC(C)(C)OCCC2(C#N)c1cccc(CC2(C(=O)O)CC2)c1` (single isomer, unassigned) [Compound 123B, 1-[[3-(6-cyano-22,28-difluoro-3,10,10-trimethyl-12,12-dioxo-9,24-dioxa-12λ6-thia-3,4,19,30-tetrazapentacyclo[23.3.1.12,5.015,23.016,20]triaconta-1(29),2(30),4,15,17,20,22,25,27-nonaen-6-yl)phenyl]methyl]cyclopropanecarboxylic Acid], the “TECC (AUC, 10 μM)” value at CFTR was “A (a TECC value less than 12 is marked “A”)”. Moreover, the “DSLS 3D (100 μM ΔT)” value at NBD1 was “C (a value greater than 10 °C and less than or equal to 25 °C is marked “C”)”.

Regarding `CC(Cc1cccc(C2(C#N)CCCC(C)(C)CS(=O)(=O)CCc3c(c(F)cc4[nH]ccc34)Oc3ccc(F)c(c3)-c3nc2nn3C)c1F)C(=O)O` (single isomer, unassigned) [Compound 124A, 3-[3-(6-cyano-22,28-difluoro-3,10,10-trimethyl-12,12-dioxo-24-oxa-12λ6-thia-3,4,19,30-tetrazapentacyclo-[23.3.1.12,5.015,23.016,20]triaconta-1(29),2(30),4,15,17,20,22,25,27-nonaen-6-yl)-2-fluoro-phenyl]-2-methyl-propanoic Acid], the “TECC (AUC, 10 μM)” value at CFTR was “A (a TECC value less than 12 is marked “A”)”. The “DSLS 3D (100 μM ΔT)” value on NBD1 was “C (a value greater than 10 °C and less than or equal to 25 °C is marked “C”)”.

`CC(Cc1cccc(C2(C#N)CCCC(C)(C)CS(=O)(=O)CCc3c(c(F)cc4[nH]ccc34)Oc3ccc(F)c(c3)-c3nc2nn3C)c1F)C(=O)O` (single isomer, unassigned) [Compound 124B, 3-[3-(6-cyano-22,28-difluoro-3,10,10-trimethyl-12,12-dioxo-24-oxa-12λ6-thia-3,4,19,30-tetrazapentacyclo-[23.3.1.12,5.015,23.016,20]triaconta-1(29),2(30),4,15,17,20,22,25,27-nonaen-6-yl)-2-fluoro-phenyl]-2-methyl-propanoic Acid]: the “TECC (AUC, 10 μM)” value on CFTR is “A (a TECC value less than 12 is marked “A”)”. In addition, at NBD1, the “DSLS 3D (100 μM ΔT)” value was “B (a value above 5 °C and less than or equal to 10 °C is marked “B”)”.

`C[C@@H](Cc1cccc(C2(C)CCCC(C)(C)CS(=O)(=O)CCc3c(c(F)cc4[nH]ccc34)C(=O)c3ccc(F)c(c3)-c3nc2nn3C)c1)C(=O)O` (single isomer, unassigned) [Compound 125A]: the “TECC (AUC, 10 μM)” value at CFTR is reported as “B (a value between 12-20 is marked “B”)”. Further, the “DSLS 3D (100 μM ΔT)” value on NBD1 was “B (a value above 5 °C and less than or equal to 10 °C is marked “B”)”.

As for `C[C@@H](Cc1cccc(C2(C)CCCC(C)(C)CS(=O)(=O)CCc3c(c(F)cc4[nH]ccc34)C(=O)c3ccc(F)c(c3)-c3nc2nn3C)c1)C(=O)O` (single isomer, unassigned) [Compound 125B], the “TECC (AUC, 10 μM)” value on CFTR was “B (a value between 12-20 is marked “B”)”. The “DSLS 3D (100 μM ΔT)” value at NBD1 is “C (a value greater than 10 °C and less than or equal to 25 °C is marked “C”)”.
